Reference: patent US20140357512A1, “HISTONE DEACETYLASE (HDAC) BIOMARKERS IN MULTIPLE MYELOMA” (priority 2013, published 2014)

Tested on: human myeloma cell line MM.1S
Assay: Biological pathway analysis of SILAC biomarker peptides against pathway database (broadinstitute gsea)
Protocol: Once biomarker peptides are identified for a specific drug by the SILAC method, the biomarker peptides may be compared to peptides/proteins in a biological pathway database in order to identify major biological pathways or functions implicated by the drug's action. A preferred pathway analysis website is at www dot broadinstitute dot org/gsea/index dot jsp.
This example describes the biological pathway analysis that was performed on each of Compound A, Compound B, and Tubastatin A.
Once biomarker peptides were identified for a specific drug (either Compound A, Compound B, or Tubastatin A) by the SILAC method in Example 1, the biomarker peptides were compared to peptides/proteins in the biological pathway database at www dot broadinstitute dot org/gsea/index dot jsp in order to identify major biological pathways or functions implicated by the drug's action.

O=C(NO)c1cnc(NC2(c3cccc(F)c3)CCCCC2)nc1 [Compound B, 2-((1-(3-fluorophenyl)cyclohexyl)amino)-N-hydroxypyrimidine-5-carboxamide]
Observed: number of genes in pathway REACTOME_PACKAGING_OF_TELOMERE_ENDS (Pathway_size 48): 15 | Ratio observed/pathway size, REACTOME_PACKAGING_OF_TELOMERE_ENDS (Pathway_size 48): 0.3125 | Observed: number of genes in pathway REACTOME_RNA_POL_I_PROMOTER_OPENING (Pathway_size 61): 15 | Ratio observed/pathway size, REACTOME_RNA_POL_I_PROMOTER_OPENING (Pathway_size 61): 0.2459 | Observed: number of genes in pathway REACTOME_DEPOSITION_OF_NEW_CENPA_CONTAINING_NUCLEOSOMES_AT_THE_CENTROMERE (Pathway_size 64): 15 | Ratio observed/pathway size, REACTOME_DEPOSITION_OF_NEW_CENPA_CONTAINING_NUCLEOSOMES_AT_THE_CENTROMERE (Pathway_size 64): 0.2344 | Observed: number of genes in pathway REACTOME_MEIOTIC_SYNAPSIS (Pathway_size 71): 16 | Ratio observed/pathway size, REACTOME_MEIOTIC_SYNAPSIS (Pathway_size 71): 0.2254 | Observed: number of genes in pathway MORF_PPP2CA (Pathway_size 127): 18 | Ratio observed/pathway size, MORF_PPP2CA (Pathway_size 127): 0.1417 | Observed: number of genes in pathway MORF_NME2 (Pathway_size 154): 19 | Ratio observed/pathway size, MORF_NME2 (Pathway_size 154): 0.1234 | Observed: number of genes in pathway MORF_NPM1 (Pathway_size 162): 20 | Ratio observed/pathway size, MORF_NPM1 (Pathway_size 162): 0.1235 | Observed: number of genes in pathway MORF_CTBP1 (Pathway_size 168): 24 | Ratio observed/pathway size, MORF_CTBP1 (Pathway_size 168): 0.1429 | Observed: number of genes in pathway MORF_G22P1 (Pathway_size 171): 23 | Ratio observed/pathway size, MORF_G22P1 (Pathway_size 171): 0.1345 | Observed: number of genes in pathway MORF_RAD21 (Pathway_size 182): 20 | Ratio observed/pathway size, MORF_RAD21 (Pathway_size 182): 0.1099 | Observed: number of genes in pathway PENG_LEUCINE_DEPRIVATION_DN (Pathway_size 187): 21 | Ratio observed/pathway size, PENG_LEUCINE_DEPRIVATION_DN (Pathway_size 187): 0.1123 | Observed: number of genes in pathway MORF_DAP3 (Pathway_size 193): 21 | Ratio observed/pathway size, MORF_DAP3 (Pathway_size 193): 0.1088 | Observed: number of genes in pathway MORF_ANP32B (Pathway_size 197): 27 | Ratio observed/pathway size, MORF_ANP32B (Pathway_size 197): 0.1371 | Observed: number of genes in pathway MORF_SKP1A (Pathway_size 202): 22 | Ratio observed/pathway size, MORF_SKP1A (Pathway_size 202): 0.1089 | Observed: number of genes in pathway MORF_AATF (Pathway_size 205): 22 | Ratio observed/pathway size, MORF_AATF (Pathway_size 205): 0.1073 | Observed: number of genes in pathway MORF_ACP1 (Pathway_size 210): 22 | Ratio observed/pathway size, MORF_ACP1 (Pathway_size 210): 0.1048 | Observed: number of genes in pathway MORF_XRCC5 (Pathway_size 234): 26 | Ratio observed/pathway size, MORF_XRCC5 (Pathway_size 234): 0.1111 | Observed: number of genes in pathway MORF_UBE2I (Pathway_size 238): 31 | Ratio observed/pathway size, MORF_UBE2I (Pathway_size 238): 0.1303 | Observed: number of genes in pathway MORF_EIF3S2 (Pathway_size 244): 25 | Ratio observed/pathway size, MORF_EIF3S2 (Pathway_size 244): 0.1025 | Observed: number of genes in pathway MORF_HDAC1 (Pathway_size 254): 30 | Ratio observed/pathway size, MORF_HDAC1 (Pathway_size 254): 0.1181 | Observed: number of genes in pathway MORF_DEK (Pathway_size 262): 29 | Ratio observed/pathway size, MORF_DEK (Pathway_size 262): 0.1107 | Observed: number of genes in pathway MORF_RAN (Pathway_size 268): 33 | Ratio observed/pathway size, MORF_RAN (Pathway_size 268): 0.1231 | Observed: number of genes in pathway MORF_BUB3 (Pathway_size 276): 27 | Ratio observed/pathway size, MORF_BUB3 (Pathway_size 276): 0.09783 | Observed: number of genes in pathway MORF_SOD1 (Pathway_size 277): 23 | Ratio observed/pathway size, MORF_SOD1 (Pathway_size 277): 0.08303 | Observed: number of genes in pathway MORF_CSNK2B (Pathway_size 287): 27 | Ratio observed/pathway size, MORF_CSNK2B (Pathway_size 287): 0.09408 | Observed: number of genes in pathway MORF_GNB1 (Pathway_size 303): 30 | Ratio observed/pathway size, MORF_GNB1 (Pathway_size 303): 0.09901 | Observed: number of genes in pathway PENG_GLUTAMINE_DEPRIVATION_DN (Pathway_size 337): 25 | Ratio observed/pathway size, PENG_GLUTAMINE_DEPRIVATION_DN (Pathway_size 337): 0.07418 | Observed: number of genes in pathway MORF_RAD23A (Pathway_size 345): 34 | Ratio observed/pathway size, MORF_RAD23A (Pathway_size 345): 0.09855 | Observed: number of genes in pathway HSIAO_HOUSEKEEPING_GENES (Pathway_size 389): 36 | Ratio observed/pathway size, HSIAO_HOUSEKEEPING_GENES (Pathway_size 389): 0.09255 | Observed: number of genes in pathway REACTOME_CELL_CYCLE (Pathway_size 412): 29 | Ratio observed/pathway size, REACTOME_CELL_CYCLE (Pathway_size 412): 0.07039 | Observed: number of genes in pathway CASORELLI_ACUTE_PROMYELOCYTIC_LEUKEMIA_DN (Pathway_size 662): 31 | Ratio observed/pathway size, CASORELLI_ACUTE_PROMYELOCYTIC_LEUKEMIA_DN (Pathway_size 662): 0.04683 | Observed: number of genes in pathway KIM_BIPOLAR_DISORDER_OLIGODENDROCYTE_DENSITY_CORR_UP (Pathway_size 681): 31 | Ratio observed/pathway size, KIM_BIPOLAR_DISORDER_OLIGODENDROCYTE_DENSITY_CORR_UP (Pathway_size 681): 0.04552 | Observed: number of genes in pathway BENPORATH_MYC_MAX_TARGETS (Pathway_size 775): 35 | Ratio observed/pathway size, BENPORATH_MYC_MAX_TARGETS (Pathway_size 775): 0.04516 | Observed: number of genes in pathway PUJANA_CHEK2_PCC_NETWORK (Pathway_size 778): 39 | Ratio observed/pathway size, PUJANA_CHEK2_PCC_NETWORK (Pathway_size 778): 0.05013 | Observed: number of genes in pathway GRADE_COLON_CANCER_UP (Pathway_size 870): 40 | Ratio observed/pathway size, GRADE_COLON_CANCER_UP (Pathway_size 870): 0.04598 | Observed: number of genes in pathway MACROMOLECULAR_COMPLEX (Pathway_size 945): 34 | Ratio observed/pathway size, MACROMOLECULAR_COMPLEX (Pathway_size 945): 0.03598 | Observed: number of genes in pathway LOPEZ_MBD_TARGETS (Pathway_size 957): 37 | Ratio observed/pathway size, LOPEZ_MBD_TARGETS (Pathway_size 957): 0.03866 | Observed: number of genes in pathway DANG_BOUND_BY_MYC (Pathway_size 1102): 46 | Ratio observed/pathway size, DANG_BOUND_BY_MYC (Pathway_size 1102): 0.04174 | Observed: number of genes in pathway INTRACELLULAR_ORGANELLE_PART (Pathway_size 1192): 47 | Ratio observed/pathway size, INTRACELLULAR_ORGANELLE_PART (Pathway_size 1192): 0.03943 | Observed: number of genes in pathway ORGANELLE_PART (Pathway_size 1197): 47 | Ratio observed/pathway size, ORGANELLE_PART (Pathway_size 1197): 0.03927 | Observed: number of genes in pathway BLALOCK_ALZHEIMERS_DISEASE_DN (Pathway_size 1237): 49 | Ratio observed/pathway size, BLALOCK_ALZHEIMERS_DISEASE_DN (Pathway_size 1237): 0.03961 | Observed: number of genes in pathway DODD_NASOPHARYNGEAL_CARCINOMA_DN (Pathway_size 1368): 39 | Ratio observed/pathway size, DODD_NASOPHARYNGEAL_CARCINOMA_DN (Pathway_size 1368): 0.02851 | Observed: number of genes in pathway DIAZ_CHRONIC_MEYLOGENOUS_LEUKEMIA_UP (Pathway_size 1382): 58 | Ratio observed/pathway size, DIAZ_CHRONIC_MEYLOGENOUS_LEUKEMIA_UP (Pathway_size 1382): 0.04197 | Observed: number of genes in pathway NUCLEUS (Pathway_size 1428): 40 | Ratio observed/pathway size, NUCLEUS (Pathway_size 1428): 0.02801 | Observed: number of genes in pathway PUJANA_ATM_PCC_NETWORK (Pathway_size 1440): 41 | Ratio observed/pathway size, PUJANA_ATM_PCC_NETWORK (Pathway_size 1440): 0.02847 | Observed: number of genes in pathway PUJANA_BRCA1_PCC_NETWORK (Pathway_size 1651): 68 | Ratio observed/pathway size, PUJANA_BRCA1_PCC_NETWORK (Pathway_size 1651): 0.04119 | Observed: number of genes in pathway GRAESSMANN_APOPTOSIS_BY_DOXORUBICIN_DN (Pathway_size 1781): 44 | Ratio observed/pathway size, […]_APOPTOSIS_BY_DOXORUBICIN_DN (Pathway_size 1781): 0.02471 | Observed: number of genes in pathway PILON_KLF1_TARGETS_DN (Pathway_size 1972): 45 | Ratio observed/pathway size, PILON_KLF1_TARGETS_DN (Pathway_size 1972): 0.02282 | Observed: number of genes in pathway CYTOPLASM (Pathway_size 2130): 50 | Ratio observed/pathway size, CYTOPLASM (Pathway_size 2130): 0.02347 | Observed: number of genes in pathway GGGCGGR_V$SP1_Q6 (Pathway_size 2939): 53 | Ratio observed/pathway size, GGGCGGR_V$SP1_Q6 (Pathway_size 2939): 0.01803
